From US20210138039A1, “PAIN RESPONSE MEDIATOR COMPOSITIONS AND METHODS FOR MAKING AND USING SAME” (Q-STATE BIOSCIENCES, INC., priority 2017, published 2021)
No end group written: not given here.

What was measured:
humans = details: injection in humans; cited from earlier work
rats = details: injected in rats; cited from earlier work
mouse DRG neurons = assay type: cell-based
[1] = test system: iPS cell-derived sensory neurons; assay type: cell-based, human
Cultured DRG neurons = assay: Firing phenotypes of cultured DRG neurons; assay type: cell-based, rodent
animal models = details: subcutaneous injection; cited from earlier work
[2] = test system: E18 rat hippocampal neurons; assay: High-throughput fluorescent voltage recording, 96-well plate (FIGS. 30-34); assay type: cell-based; details: 1 μM; neurons cultured for 14 days; blue light stimulus
Text: FIGS. 30-34 show high-throughput validation for screening. E18 rat hippocampal neurons cultured for 14 days.
The blue light stimulus is shown below.
FIG. 31 is a raster plot showing spikes from columns of wells.
Vehicle wells (even columns, green) and ML213 wells (odd columns, red) are easily distinguished. Even numbered columns are all green; odd numbered columns are all read.

Nc1ncnc2c1ncn2[C@@H]1O[C@H](COP(=O)(O)OP(=O)(O)OP(=O)(O)O)[C@@H](O)[C@H]1O [ATP, adenosine triphosphate]
pain sensitivity on injection (humans): increased pain sensitivity

TNF-a
pain on injection (rats): cause pain

NC1=N[C@H](O)[C@H]2[C@H]3O[C@]4(O)O[C@@H]([C@@H](O)[C@@]2(N1)[C@@H]4O)[C@]3(O)CO [TTX, tetrodotoxin]
after-hyperpolarization depth (mouse DRG neurons): decreases | effect on the pain mediator composition-induced firing (mouse DRG neurons): blocks the effect of the pain mediator composition | spike width (mouse DRG neurons): increases | spiking in response to the blue stimulus [1]: almost all spiking is blocked

COc1cc(CNC(=O)CCCC/C=C/C(C)C)ccc1O [capsaicin]
firing phenotype in response to capsaicin (Cultured DRG neurons): acute response

IL-6: an inflammatory cytokine found to be elevated around tumors
pain on injection (rats): causes local pain

endothelin 1 (CSCSSLMDKECVYFCHLDIIW; ends and bridges not checked; cysteine pairing not given here; UniProt P05305 53-73, looked up) [ET-1]
sensitization (paw withdrawal threshold) (animal models): local sensitization

Cc1cc(C)c(NC(=O)C2CC3CCC2C3)c(C)c1 (stereo not shown) [ML213]
firing rate [2]: dramatically reduces firing rate in all wells tested
